Assay: NO photo-release, fluorimetric DAN (2,3-diaminonaphthalene) assay measuring nitrite levels
Conditions: for NO release after irradiation (presence of nitrites, fluorescent spectrum): 350 nm, 8 lamps
From the text: It allows the indirect determination of NO by measuring nitrite levels. In particular, NO is an highly reactive gas that, in the presence of water, forms an equimolar mixture of nitrites and nitrates. Nitrites, reacting with a DAN (2,3-diaminonaphtalene) solution in the presence of an acid, form 1-naphthotriazole, a highly fluorescent compound having a characteristic UV absorbance.
Therefore, the solution of 4-nitro-3-(trifluoromethyl)aniline in methanol after irradiation was dried and then the recovered 4-nitro-3-(trifluoromethyl)aniline was re-dissolved with water and phosphate buffer 0.1 M (pH 7.4). 150 μl of a DAN solution were added to the solution of 4-nitro-3-(trifluoromethyl)aniline heating at 50° C. for 40 minutes. Subsequently, 150 μl of concentrated NaOH was added in order to obtain naphthotriazole ions according to the scheme below.
300 μl of a DAN saturated solution in HCl 0.6 M were added to 3 ml of the irradiated solution of 10-(3-(trifluoromethyl)-4-Nitrophenylamino)decan-1-thiol followed by heating at 50° C. for 20 minutes.
Subsequently, 1 ml of NaOH was added to 1 ml of the solution in order to obtain naphthotriazole ions.
The NO photo-release of the nanoparticles functionalized with 1043-(trifluoromethyl)-4-Nitrophenylamino)decan-1-thiol was measured using fluorimetric assay based on 2,3-diaminonaphthalene (DAN) [T. P. Misko, R. J. Schilling, D. Salvemini, W. M. Moore, M. G. Currie, Anal. […]], as shown in Examples 1 and 2 (FIG. 8).

With `Nc1ccc([N+](=O)[O-])c(C(F)(F)F)c1` [4-nitro-3-(trifluoromethyl)aniline] the “NO release after irradiation (presence of nitrites, fluorescent spectrum)” value (methanol solution, 2 hours, DAN, phosphate buffer pH 7.4, FIG. 4) was “formation of NO”.

With `O=[N+]([O-])c1ccc(NCCCCCCCCCCS)cc1C(F)(F)F` [10-(3-(trifluoromethyl)-4-Nitrophenylamino)decan-1-thiol] the “NO release after irradiation (presence of nitrites, fluorescent spectrum)” value (CH3OH:H2O (10%) solution, 35 minutes, DAN in HCl 0.6 M, FIG. 6) was “formation of NO” and the “NO photo-release profile (trend of the curve)” value (fluorimetric DAN assay, FIG. 8) was “linear behavior”.

Reference: patent US8440849B2, “Use of nitroaniline derivatives for the production of nitric oxide” (STMicroelectronics S.r.l., priority 2006, dated 2013)
